From patent publication US20190388421A1, “NOVEL COMPOUNDS AND PHARMACEUTICAL COMPOSITIONS THEREOF FOR THE TREATMENT OF FIBROSIS” (Galapagos NV, priority 2016, published 2019)

What was measured:
S1PR2 = molecular target: T1, S1PR2 (Homo sapiens, UniProt O95136); assay: GTP-γS binding assay ([35S]GTPγS, S1P at EC80, S1PR2 membranes); assay type: biochemical; settings: membranes from stable cell line over expressing S1PR2, read-out: S1PR2 EC
T1 construct: expressed in transfected cells
Experimental: The following assay can be used for determination of S1PR2 activation. The [^35S] GTPγS assay measures the level of G protein activation following agonist occupation of a GPCR, by determining the binding of the non-hydrolysable analog [^35S] GTPγS to Gα subunits.
The assay is performed in a 96 well plate where the following reagents are added. First 50 μL compound is added into the assay plate, followed by addition of 20 μL S1P at EC80 concentration (concentration which gives 80% of the activity of S1PR2). Then, 30 μL of a mixture consisting of membranes-GTPγS-SpA beads is added [mixture consists of 2.5 μg/well membranes derived from stable cell line over expressing S1PR2 (membranes are pre-incubated with 1 μM GDP for 15 min at 4° C.), 0.1 nM [35S]GTPγS (Perkin Elmer, NEG030) and 0.5 mg/well PVT-WGA SpA beads (Perkin Elmer, RPNQ0001)]. All components are diluted in assay buffer containing 20 mM Tris pH 7.5; 10 mM MgCl2; 100 mM NaCl; 0.1% BSA FAF; 50 ug/ml saponin. After an incubation for 4 h at room temperature, plates are centrifuged at 2000 rpm during 20 min. Plates are read on a Topcount reader (Perkin Elmer) immediately after centrifugation (readout time, 1 min/well).

[1] = molecular target: T2, human GPCR sphingosine 1-phosphate receptor 2 (S1PR2) (Homo sapiens, UniProt O95136); assay: S1P2 antagonist assay (Ca2+ flux, S1P at EC80); assay type: cell-based; settings: CHO-S1PR2 cells, highest concentration 20 μM
T2 construct: host or cells: CHO
Experimental: Triggering of S1PR2 by administration of Sphingosine-1-phosphate leads to a transient increase in intracellular Ca^2+. The Ca^2+ flux assays are measuring the release of Ca^2+ intracellularly by use of a Ca^2+ sensitive fluorescent dye. The assay is firstly run in agonist mode (incubation of compounds alone) to ensure that the Ca^2+ released measured is not caused by the test compound having an agonistic effect. Then the assay is continued in antagonist mode (Sphingosine-1-Phosphate added to incubated medium containing the test compounds).
CHO cells stably overexpressing human GPCR sphingosine 1-phosphate receptor 2 (CHO—S1PR2 Perkin Elmer; ES-594-A) are seeded from a frozen stock in 384 wells sterile microplates (50 μL; 7,500 cells/well) and are incubated overnight at 37° C. and 5% CO2. The next day cells are washed twice with starvation medium (F-12 Ham's medium containing 0.1% BSA (Fatty acid free: FAF)) and left in […] starvation medium for 1 h at 37° C., 5% CO2. After this starvation cells are incubated with […] buffer containing the Ca^2+-sensitive fluorescent dye (0.5 mg Fluo8+125 mg Allura Red in 100 ml of 1% DMSO, in HBSS+20 mM Hepes+5 mM probenecid). The cells are incubated for an additional 1 hour after which 10 μL compounds, diluted in HBSS buffer with 20 mM Hepes and 0.1% BSA (FAF), are added to the cells and intracellular Ca^2+ changes are immediately measured by reading fluorescence during 3 min (FDSS/μCELL reader). The ratio of the maximal fluorescence over the background fluorescence before compound injection is used to determine compound response.
After readout of the agonist activity, the plates are incubated for 15 min at 37° C. and 5% CO2. Then, cells are stimulated with 10 μL Sphingosine-1-Phosphate (S1P) (Avanti Polar lipids-860492P) at its EC80 concentration. Intracellular Ca^2+ changes are immediately measured by reading fluorescence during 3 min (FDSS/μCELL reader). The ratio of the maximal fluorescence over the background fluorescence before compound injection is used to determine compound response.
For EC50 determination, a 10 point dilution series of compounds starting from 23.3 μM and 20 μM highest final concentration for agonist and antagonist respectively, ⅓ dilution was performed.
The obtained ratio's for agonist and antagonist readout were normalized versus vehicle and EC100 of S1P as controls for agonist mode and versus vehicle and EC80 of S1P for antagonist mode. From these normalized data EC50 of the compounds are derived.

T2 sequence (O95136 whole entry): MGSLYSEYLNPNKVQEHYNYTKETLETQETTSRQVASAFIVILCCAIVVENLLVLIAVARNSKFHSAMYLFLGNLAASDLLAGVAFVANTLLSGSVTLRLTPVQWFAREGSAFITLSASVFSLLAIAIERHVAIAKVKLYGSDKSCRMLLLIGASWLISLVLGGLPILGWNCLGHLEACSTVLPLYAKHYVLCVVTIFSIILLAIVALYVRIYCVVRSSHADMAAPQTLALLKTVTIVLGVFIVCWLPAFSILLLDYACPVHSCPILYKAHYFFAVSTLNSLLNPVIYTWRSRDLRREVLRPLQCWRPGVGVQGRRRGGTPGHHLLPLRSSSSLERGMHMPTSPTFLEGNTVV
T1 sequence (O95136 whole entry): as above

| EC50 (S1PR2) | EC50 [1] | Compound |
| --- | --- | --- |
| – | 1360 nM | CCOc1ncc(NC(=O)NCc2cc(C)c(N3CC(C)OC(C)C3)nn2)cc1Cl (stereo not shown) [Compound 86, 1-(5-chloro-6-ethoxy-3-pyridyl)-3-[[6-(2,6-dimethyl-morpholin-4-yl)-5-methyl-pyridazin-3-yl]methyl]urea] |
| 1800 nM | 791 nM | Cc1cc(CNC(=O)Nc2cc(OCC3CCOC3)nc(C(F)(F)F)c2)nnc1-c1cn(C)nc1C(F)(F)F (stereo not shown) [Compound 36] |
| – | 4510 nM | Cc1cc(CNC(=O)Nc2cnc(OCC3CC3)c(Cl)c2)nnc1N1CC(C)OC(C)C1 (stereo not shown) [Compound 88, 1-[5-chloro-6-(cyclopropyl-methoxy)-3-pyridyl]-3-[[6-(2,6-dimethyl-morpholin-4-yl)-5-methyl-pyridazin-3-yl]methyl]urea] |
| 16300 nM | – | CCOc1cc(N[14C](=O)NCc2cc(C)c(-c3cn(C)nc3C(F)(F)F)nn2)cc(C(F)(F)F)n1 [Compound 98, 1-(2-Ethoxy-6-trifluoromethyl-pyridin-4-yl)-3-[5-methyl-6-(1-methyl-3-trifluoromethyl-1H-pyrazol-4-yl)-pyridazin-3-ylmethyl]-C14 urea] |
| – | 11.5 nM | CCOc1nc(C(F)(F)F)cc(NC(=O)NCc2cc(C)c(-c3cn(C)nc3C(F)(F)F)nn2)c1Br [Compound 49, 1-[3-bromo-2-ethoxy-6-(trifluoromethyl)-4-pyridyl]-3-[[5-methyl-6-[1-methyl-3-(trifluoromethyl)pyrazol-4-yl]pyridazin-3-yl]methyl]urea] |
| – | 6510 nM | Cc1cc(CNC(=O)Nc2cnc(OCC(F)F)c(Cl)c2)nnc1N1CC(C)OC(C)C1 (stereo not shown) [Compound 84, 1-[5-chloro-6-(2,2-difluoroethoxy)-3-pyridyl]-3-[[6-(2,6-dimethyl-morpholin-4-yl)-5-methyl-pyridazin-3-yl]methyl]urea] |

Further lines, the compound ahead of its results:

| Compound | EC50 (S1PR2) | EC50 [1] |
| --- | --- | --- |
| Cc1cc(CNC(=O)Nc2cc(OCC3CC3(F)F)nc(C(F)(F)F)c2)nnc1-c1cn(C)nc1C(F)(F)F (stereo not shown) [Compound 33, 1-[2-[(2,2-difluoro-cyclopropyl)methoxy]-6-(trifluoromethyl)-4-pyridyl]-3-[[5-methyl-6-[1-methyl-3-(trifluoromethyl)pyrazol-4-yl]pyridazin-3-yl]methyl]urea] | 164 nM | 37.1 nM |
| Cc1cc(CNC(=O)Nc2cc(OCC(F)F)nc(C(F)(F)F)c2)nnc1-c1cn(C)nc1C(F)(F)F [Compound 19, 1-[2-(2,2-difluoroethoxy)-6-(trifluoromethyl)-4-pyridyl]-3-[[5-methyl-6-[1-methyl-3-(trifluoromethyl)pyrazol-4-yl]pyridazin-3-yl]methyl]urea] | 88.7 nM | 17.1 nM |
| Cc1cc(CNC(=O)Nc2cc(Cl)cc(Cl)c2)nnc1-c1cn(C)nc1C(F)(F)F [Compound 6, 1-(3,5-dichlorophenyl)-3-[[5-methyl-6-[1-methyl-3-(trifluoromethyl)pyrazol-4-yl]pyridazin-3-yl]methyl]urea] | 50.2 nM | 16.9 nM |
| Cc1cc(CNC(=O)Nc2cnc(OCC3CC3)c(C(F)(F)F)c2)nnc1-c1cn(C)nc1C(F)(F)F [Compound 11, 1-[6-cyclopropyl-methoxy-5-(trifluoromethyl)-3-pyridyl]-3-[[5-methyl-6-[1-methyl-3-(trifluoromethyl)pyrazol-4-yl]pyridazin-3-yl]methyl]urea] | 716 nM | 49.6 nM |
| Cc1cc(CNC(=O)Nc2cc(Cl)nc(OCC(F)(F)F)c2)nnc1-c1cn(C)nc1C(F)(F)F [Compound 14, 1-[2-chloro-6-(2,2,2-trifluoroethoxy)-4-pyridyl]-3-[[5-methyl-6-[1-methyl-3-(trifluoromethyl)pyrazol-4-yl]pyridazin-3-yl]methyl]urea] | 225 nM | 24.2 nM |
| Cc1cc(CNC(=O)Nc2cnc(OCC3CC3)c(Cl)c2)nnc1-c1cn(C)nc1C(F)(F)F [Compound 13, 1-[5-chloro-6-(cyclopropyl-methoxy)-3-pyridyl]-3-[[5-methyl-6-[1-methyl-3-(trifluoromethyl)pyrazol-4-yl]pyridazin-3-yl]methyl]urea] | 1120 nM | 40.3 nM |
